Key:
redroot pigweed = assay: Test A pre-/postemergence greenhouse test; format: in vivo, Amaranthus retroflexus; settings: for Plant response rating, Pigweed: 0 to 100 scale where 0 is no effect and 100 is complete control; for Pigweed plant response rating: 0 to 100 scale
How it was run: (§1)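 Pre: directed soil spray on seeded loam/sand. Post: foliar spray, plants 2–10 cm, 1–2 leaf stage, applied concurrently. Vehicle: non-phytotoxic solvent + surfactant. Greenhouse ~10 d; visual injury rating vs untreated controls.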

velvetleaf [1] = assay: Test A pre-/postemergence greenhouse test; format: in vivo, Abutilon theophrasti; settings: for Plant response rating, Velvetleaf: 0 to 100 scale where 0 is no effect and 100 is complete control; for Velvetleaf plant response rating: 0 to 100 scale
How it was run: as §1

wheat [2] = assay: Test A pre-/postemergence greenhouse test; format: in vivo, Triticum aestivum; settings: for Plant response rating, Wheat: 0 to 100 scale where 0 is no effect and 100 is complete control; for Wheat plant response rating: 0 to 100 scale
How it was run: as §1

downy brome = assay: Test C pre-/postemergence test; format: in vivo, Bromus tectorum; settings: for Plant response rating, Bromegrass, Downy: 31 g ai/ha, scale 0 to 100 (0 no effect, 100 complete control)
How it was run: (§2)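 Seeds were planted and treated preemergence with test chemical in a non-phytotoxic solvent mixture containing surfactant. Postemergence applications of the same formulation went onto plants 2 to 18 cm tall (1- to 4-leaf stage). A dash marks no test result.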

wheat [3] = assay: Test C pre-/postemergence test; format: in vivo, Triticum aestivum; settings: for Plant response rating, Wheat: 31 g ai/ha, scale 0 to 100 (0 no effect, 100 complete control)
How it was run: as §2

wild oat = assay: Test C pre-/postemergence test; format: in vivo, Avena fatua; settings: for Plant response rating, Oat, Wild: 31 g ai/ha, scale 0 to 100 (0 no effect, 100 complete control)
How it was run: as §2

corn = assay: Test C pre-/postemergence test; format: in vivo, Zea mays; settings: for Plant response rating, Corn: 31 g ai/ha, scale 0 to 100 (0 no effect, 100 complete control)
How it was run: as §2

woolly cupgrass = assay: Test C pre-/postemergence test; format: in vivo, Eriochloa villosa; settings: for Plant response rating, Cupgrass, Woolly: 31 g ai/ha, scale 0 to 100 (0 no effect, 100 complete control)
How it was run: as §2

giant foxtail = assay: Test C pre-/postemergence test; format: in vivo, Setaria faberii; settings: for Plant response rating, Foxtail, Giant: 31 g ai/ha, scale 0 to 100 (0 no effect, 100 complete control)
How it was run: as §2

johnsongrass = assay: Test C pre-/postemergence test; format: in vivo, Sorghum halepense; settings: for Plant response rating, Johnsongrass: 31 g ai/ha, scale 0 to 100 (0 no effect, 100 complete control)
How it was run: as §2

morningglory = assay: Test C pre-/postemergence test; format: in vivo, Ipomoea coccinea; settings: for Plant response rating, Morningglory: 31 g ai/ha, scale 0 to 100 (0 no effect, 100 complete control)
How it was run: as §2

eastern black nightshade = assay: Test C pre-/postemergence test; format: in vivo, Solanum ptycanthum; settings: for Plant response rating, Nightshade: 31 g ai/ha, scale 0 to 100 (0 no effect, 100 complete control)
Description: Seeds of plant species selected from blackgrass (Alopecurus myosuroides), downy brome (Bromus tectorum), green foxtail (Setaria viridis), Italian ryegrass (Lolium multiflorum), wheat (Triticum aestivum), wild oat (Avena fatua), catchweed bedstraw (Galium aparine), Russian thistle (Salsola kali), […] (Cynodon dactylon), Surinam grass (Brachiaria decumbens), cocklebur (Xanthium strumarium), corn (Zea mays), crabgrass (Digitaria sanguinalis), woolly cupgrass (Eriochloa villosa), giant foxtail (Setaria faberii), Goosegrass (Eleusin indica), johnsongrass (Sorghum halepense), kochia (Kochia scoparia), lambsquarters (Chenopodium album), morningglory (Ipomoea coccinea), eastern black nightshade (Solanum ptycanthum), yellow nutsedge (Cyperus esculentus), pigweed (Amaranthus retroflexus), common ragweed (Ambrosia elation), soybean (Glycine max), common (oilseed) sunflower (Helianthus annuus), and velvetleaf (Abutilon theophrasti) were planted and treated preemergence with test chemicals formulated in a non-phytotoxic solvent mixture which included a surfactant. At the same time, plants selected from these crop and weed species and also winter barley (Hordeum vulgare), canarygrass (Phalaris minor), and chickweed (Stellaria media) were treated with postemergence applications of some of the test chemicals formulated in the same manner. Plants ranged in height from 2 to 18 cm (1- to 4-leaf stage) for postemergence treatments. […] At time of treatment, test pots were flooded to 3 cm above the soil surface, treated by application of test compounds directly to the paddy water, and then maintained at that water depth for the duration of the test. […] A dash (-) response means no test result.

yellow nutsedge = assay: Test C pre-/postemergence test; format: in vivo, Cyperus esculentus; settings: for Plant response rating, Nutsedge, Yellow: 31 g ai/ha, scale 0 to 100 (0 no effect, 100 complete control)
How it was run: as §2

velvetleaf [4] = assay: Test C pre-/postemergence test; format: in vivo, Abutilon theophrasti; settings: for Plant response rating, Velvetleaf: 31 g ai/ha, scale 0 to 100 (0 no effect, 100 complete control)
How it was run: as §2

rice = assay: Test C flooded paddy test; format: in vivo, Oryza sativa; settings: Flood
How it was run: (§3)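 Visual injury ratings against untreated controls, taken 13 to 15 days after compound was added to paddy water standing 3 cm above the soil.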

duck salad = assay: Test C flooded paddy test; format: in vivo, Heteranthera limosa; settings: Flood
How it was run: as §3

[5] = Postemergence, 500 g ai/ha, 0 is no effect, 100 is complete control
[6] = Preemergence, 125 g ai/ha, 0 no effect, 100 complete control
[7] = 62 g ai/ha, Preemergence, scale 0 to 100
[8] = 125 g ai/ha, preemergence, scale 0 (no effect) to 100 (complete control)
[9] = preemergence, 250 g ai/ha, scale 0 (no effect) to 100 (complete control)
[10] = 62 g ai/ha, scale 0 to 100 (0 no effect, 100 complete control)
[11] = 250 g ai/ha, scale 0 to 100, 0 no effect, 100 complete control, 13 to 15 days

Cn1nc(C(F)(F)F)c(CS(=O)(=O)c2ccc(Cl)c[n+]2[O-])c1OCC(F)(F)F [Compound 73]
Plant response rating, Pigweed (redroot pigweed; Postemergence, 125 g ai/ha): 10 | Pigweed plant response rating (redroot pigweed; [5]): 60 | Pigweed plant response rating (redroot pigweed; [6]): 90 | Plant response rating, Pigweed (redroot pigweed; Preemergence, 500 g ai/ha): 100 | Plant response rating, Velvetleaf (velvetleaf [1]; Postemergence, 125 g ai/ha): 0 | Velvetleaf plant response rating (velvetleaf [1]; [5]): 50 | Velvetleaf plant response rating (velvetleaf [1]; [6]): 0 | Plant response rating, Velvetleaf (velvetleaf [1]; Preemergence, 500 g ai/ha): 60 | Plant response rating, Wheat (wheat [2]; Postemergence, 125 g ai/ha): 0 | Wheat plant response rating (wheat [2]; [5]): 30 | Wheat plant response rating (wheat [2]; [6]): 0 | Plant response rating, Wheat (wheat [2]; Preemergence, 500 g ai/ha): 50 | Bromegrass, Downy plant response rating (downy brome; [7]): 60 | Bromegrass, Downy plant response rating (downy brome; [8]): 60 | Plant response rating, Bromegrass, Downy (downy brome; Preemergence): 0 | Bromegrass, Downy plant response rating (downy brome; [9]): 100 | Wheat plant response rating (wheat [3]; [7]): 0 | Wheat plant response rating (wheat [3]; [8]): 10 | Plant response rating, Wheat (wheat [3]; Preemergence): 0 | Wheat plant response rating (wheat [3]; [9]): 20 | Oat, Wild plant response rating (wild oat; [7]): 40 | Oat, Wild plant response rating (wild oat; [8]): 60 | Plant response rating, Oat, Wild (wild oat; Preemergence): 40 | Oat, Wild plant response rating (wild oat; [9]): 90 | Corn plant response rating (corn; [7]): 0 | Corn plant response rating (corn; [8]): 0 | Plant response rating, Corn (corn; Preemergence): 0 | Corn plant response rating (corn; [9]): 30 | Cupgrass, Woolly plant response rating (woolly cupgrass; [7]): 80 | Cupgrass, Woolly plant response rating (woolly cupgrass; [8]): 85 | Plant response rating, Cupgrass, Woolly (woolly cupgrass; Preemergence): 60 | Cupgrass, Woolly plant response rating (woolly cupgrass; [9]): 85 | Foxtail, Giant plant response rating (giant foxtail; [7]): 10 | Foxtail, Giant plant response rating (giant foxtail; [8]): 80 | Plant response rating, Foxtail, Giant (giant foxtail; Preemergence): 10 | Foxtail, Giant plant response rating (giant foxtail; [9]): 80 | Johnsongrass plant response rating (johnsongrass; [7]): 100 | Johnsongrass plant response rating (johnsongrass; [8]): 100 | Plant response rating, Johnsongrass (johnsongrass; Preemergence): 70 | Johnsongrass plant response rating (johnsongrass; [9]): 100 | Morningglory plant response rating (morningglory; [7]): 0 | Morningglory plant response rating (morningglory; [8]): 0 | Plant response rating, Morningglory (morningglory; Preemergence): 0 | Morningglory plant response rating (morningglory; [9]): 0 | Nightshade plant response rating (eastern black nightshade; [7]): 80 | Nightshade plant response rating (eastern black nightshade; [8]): 80 | Plant response rating, Nightshade (eastern black nightshade; Preemergence): 0 | Nightshade plant response rating (eastern black nightshade; [9]): 85 | Nutsedge, Yellow plant response rating (yellow nutsedge; [7]): 0 | Nutsedge, Yellow plant response rating (yellow nutsedge; [8]): 40 | Plant response rating, Nutsedge, Yellow (yellow nutsedge; Preemergence): 0 | Nutsedge, Yellow plant response rating (yellow nutsedge; [9]): 80 | Velvetleaf plant response rating (velvetleaf [4]; [7]): 30 | Velvetleaf plant response rating (velvetleaf [4]; [8]): 40 | Plant response rating, Velvetleaf (velvetleaf [4]; Preemergence): 0 | Velvetleaf plant response rating (velvetleaf [4]; [9]): 70 | Plant response rating, Rice (rice; [10]): 0 | Plant response rating, Rice (rice; [11]): 20 | Plant response rating, Ducksalad (duck salad; [10]): 70 | Plant response rating, Ducksalad (duck salad; [11]): 85

Cn1nc(C(F)(F)F)c(CS(=O)(=O)c2cccc[n+]2[O-])c1OCC(F)F [Compound 81]
Plant response rating, Pigweed (redroot pigweed; Postemergence, 125 g ai/ha): 40 | Pigweed plant response rating (redroot pigweed; [5]): 70 | Pigweed plant response rating (redroot pigweed; [6]): 90 | Plant response rating, Pigweed (redroot pigweed; Preemergence, 500 g ai/ha): 100 | Plant response rating, Velvetleaf (velvetleaf [1]; Postemergence, 125 g ai/ha): 10 | Velvetleaf plant response rating (velvetleaf [1]; [5]): 70 | Velvetleaf plant response rating (velvetleaf [1]; [6]): 10 | Plant response rating, Velvetleaf (velvetleaf [1]; Preemergence, 500 g ai/ha): 100 | Plant response rating, Wheat (wheat [2]; Postemergence, 125 g ai/ha): 20 | Wheat plant response rating (wheat [2]; [5]): 60 | Wheat plant response rating (wheat [2]; [6]): 10 | Plant response rating, Wheat (wheat [2]; Preemergence, 500 g ai/ha): 80 | Bromegrass, Downy plant response rating (downy brome; [7]): 40 | Bromegrass, Downy plant response rating (downy brome; [8]): 100 | Plant response rating, Bromegrass, Downy (downy brome; Preemergence): 40 | Bromegrass, Downy plant response rating (downy brome; [9]): 100 | Wheat plant response rating (wheat [3]; [7]): 5 | Wheat plant response rating (wheat [3]; [8]): 80 | Plant response rating, Wheat (wheat [3]; Preemergence): 0 | Wheat plant response rating (wheat [3]; [9]): 80 | Oat, Wild plant response rating (wild oat; [7]): 60 | Oat, Wild plant response rating (wild oat; [8]): 95 | Plant response rating, Oat, Wild (wild oat; Preemergence): 0 | Oat, Wild plant response rating (wild oat; [9]): 95 | Corn plant response rating (corn; [7]): 20 | Corn plant response rating (corn; [8]): 100 | Plant response rating, Corn (corn; Preemergence): 0 | Corn plant response rating (corn; [9]): 100 | Cupgrass, Woolly plant response rating (woolly cupgrass; [7]): 100 | Cupgrass, Woolly plant response rating (woolly cupgrass; [8]): 100 | Plant response rating, Cupgrass, Woolly (woolly cupgrass; Preemergence): 85 | Cupgrass, Woolly plant response rating (woolly cupgrass; [9]): 100 | Foxtail, Giant plant response rating (giant foxtail; [7]): 98 | Foxtail, Giant plant response rating (giant foxtail; [8]): 100 | Plant response rating, Foxtail, Giant (giant foxtail; Preemergence): 80 | Foxtail, Giant plant response rating (giant foxtail; [9]): 100 | Johnsongrass plant response rating (johnsongrass; [7]): 95 | Johnsongrass plant response rating (johnsongrass; [8]): 100 | Plant response rating, Johnsongrass (johnsongrass; Preemergence): 95 | Johnsongrass plant response rating (johnsongrass; [9]): 100 | Morningglory plant response rating (morningglory; [7]): 0 | Morningglory plant response rating (morningglory; [8]): 85 | Plant response rating, Morningglory (morningglory; Preemergence): 0 | Morningglory plant response rating (morningglory; [9]): 85 | Nightshade plant response rating (eastern black nightshade; [7]): 70 | Nightshade plant response rating (eastern black nightshade; [8]): 90 | Plant response rating, Nightshade (eastern black nightshade; Preemergence): 0 | Nightshade plant response rating (eastern black nightshade; [9]): 90 | Nutsedge, Yellow plant response rating (yellow nutsedge; [7]): 70 | Nutsedge, Yellow plant response rating (yellow nutsedge; [8]): 85 | Plant response rating, Nutsedge, Yellow (yellow nutsedge; Preemergence): 50 | Nutsedge, Yellow plant response rating (yellow nutsedge; [9]): 98 | Velvetleaf plant response rating (velvetleaf [4]; [7]): 45 | Velvetleaf plant response rating (velvetleaf [4]; [8]): 70 | Plant response rating, Velvetleaf (velvetleaf [4]; Preemergence): 0 | Velvetleaf plant response rating (velvetleaf [4]; [9]): 85 | Plant response rating, Rice (rice; [10]): 0 | Plant response rating, Rice (rice; [11]): 0 | Plant response rating, Ducksalad (duck salad; [10]): 65 | Plant response rating, Ducksalad (duck salad; [11]): 75

Source: US20100298141A1, “SUBSTITUTED PYRIDINE N-OXIDE HERBICIDES” (E. I. DU PONT DE NEMOURS AND COMPANY, priority 2007, published 2010)
